Measured values as given in PubChem BioAssay (NCI).
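Compound exposure: 48 hours, 5 concentrations, 96-well plates. At the TGI there is no net growth.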

What was measured:
Experiment in all cases: DTP human tumour cell line panel, 48 h
NCI-H23 lung = system: NCI-H23 lung
MDA-MB-435 = system: MDA-MB-435
HCT-15 colon = system: HCT-15 colon
786-0 renal = system: 786-0 renal
TK-10 renal = system: TK-10 renal
CAKI-1 renal = system: CAKI-1 renal
SR leukemia = system: SR leukemia
ACHN renal = system: ACHN renal
UACC-62 melanoma = system: UACC-62 melanoma
MALME-3M melanoma = system: MALME-3M melanoma
NCI-H226 lung = system: NCI-H226 lung
SNB-75 CNS = system: SNB-75 CNS
SNB-19 CNS = system: SNB-19 CNS
HCC-2998 colon = system: HCC-2998 colon
A549 NSCLC = system: A549 NSCLC
HT29 colon = system: HT29 colon
CCRF-CEM leukemia = system: CCRF-CEM leukemia
UACC-257 melanoma = system: UACC-257 melanoma
SK-OV-3 ovarian = system: SK-OV-3 ovarian
HOP-92 NSCLC = system: HOP-92 NSCLC

Structure (SMILES)	TGI (NCI-H23 lung) [µM]	TGI (MDA-MB-435) [µM]	TGI (HCT-15 colon) [µM]	TGI (786-0 renal) [µM]	TGI (TK-10 renal) [µM]	TGI (CAKI-1 renal) [µM]	TGI (SR leukemia) [µM]	TGI (ACHN renal) [µM]	TGI (UACC-62 melanoma) [µM]	TGI (MALME-3M melanoma) [µM]	TGI (NCI-H226 lung) [µM]	TGI (SNB-75 CNS) [µM]	TGI (SNB-19 CNS) [µM]	TGI (HCC-2998 colon) [µM]	TGI (A549 NSCLC) [µM]	TGI (HT29 colon) [µM]	TGI (CCRF-CEM leukemia) [µM]	TGI (UACC-257 melanoma) [µM]	TGI (SK-OV-3 ovarian) [µM]	TGI (HOP-92 NSCLC) [µM]
O=C(O)c1ccc(Nc2nc3ccc(C(F)(F)F)cc3nc2-c2ccccc2)cc1	> 100	> 100	57.3	> 100	52.4	> 100	> 100	> 100	35.8	> 100	> 100	> 100	> 100	40.3	> 100	> 10	> 100	> 100	–	–
O=C(O)CCC1(CCC(=O)O)CCCCCCCCC(CCC(=O)O)(CCC(=O)O)C(=O)C1=O	> 100	> 100	> 100	> 100	> 100	> 100	> 100	> 100	> 100	> 100	> 100	> 100	> 100	> 100	> 100	> 100	–	> 100	> 100	> 100
CC(C)(CN1CCCCC1)C(=O)CC(SCCS(=O)(=O)O)c1ccccc1 (centres undefined)	–	29.3	42.9	25.4	38.1	34.9	13.9	52.9	29.5	33.3	62	54.9	54.2	41.8	> 100	31.7	32.1	–	> 100	25.3
CCOC(OCC)[C@@H]1C[C@@H]2N(O[C@H](OC3CCCC3(c3ccccc3)c3ccccc3)[C@H](OC(C)=O)[C@@]2(CC)Cc2ccc(OC)c(OC)c2)O1 (some centres undefined)	> 100	> 100	> 100	> 100	> 100	> 100	> 100	> 100	> 100	–	> 100	> 100	> 100	> 100	> 100	> 100	> 100	> 100	> 100	–
CCOC(=O)CN1C(=O)c2c(NC(=O)C(=O)O)cccc2S1(=O)=O	> 100	> 100	> 100	> 100	> 100	> 100	> 100	> 100	> 100	> 100	> 100	–	> 100	> 100	> 100	> 100	> 100	> 100	> 100	> 100
Nc1nc(N)c2c(-c3ccccc3)ccnc2n1	> 100	> 100	–	> 100	> 100	> 100	> 100	> 100	> 100	> 100	> 100	–	> 100	> 100	–	> 100	> 100	> 100	> 100	> 100
